Measured values: PubChem BioAssay (NCI)
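Values below derive from 48-hour exposures of cells grown in 96-well plates, with endpoints linearly interpolated between the two concentrations bracketing the appropriate inhibition level. GI50 marks 50% less growth. TGI: concentration producing complete growth inhibition.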

What was measured:
Experiment in all cases: DTP human tumour cell line panel, 48 h
COLO 205 colon = system: COLO 205 colon
HCT-15 colon = system: HCT-15 colon
HOP-18 NSCLC = system: HOP-18 NSCLC
HOP-62 NSCLC = system: HOP-62 NSCLC
HT29 colon = system: HT29 colon
IGROV1 ovarian = system: IGROV1 ovarian
RPMI-8226 leukemia = system: RPMI-8226 leukemia
SF-295 CNS = system: SF-295 CNS
SF-539 CNS = system: SF-539 CNS
ACHN renal = system: ACHN renal

Row | Structure (SMILES) | TGI (COLO 205 colon) [µM] | TGI (HCT-15 colon) [µM] | TGI (HOP-18 NSCLC) [µM] | TGI (HOP-62 NSCLC) [µM] | TGI (HT29 colon) [µM] | TGI (IGROV1 ovarian) [µM] | TGI (RPMI-8226 leukemia) [µM] | TGI (SF-295 CNS) [µM] | TGI (SF-539 CNS) [µM] | GI50 (ACHN renal) [µM] | TGI (ACHN renal) [µM] | GI50 (COLO 205 colon) [µM] | GI50 (HCT-15 colon) [µM] | GI50 (HOP-18 NSCLC) [µM] | GI50 (HT29 colon) [µM] | GI50 (IGROV1 ovarian) [µM] | GI50 (RPMI-8226 leukemia) [µM] | GI50 (SF-295 CNS) [µM] | GI50 (SF-539 CNS) [µM]
1 | C[C@]12CC[C@H](O)C=C1CC[C@@H]1[C@@H]2CC[C@]2(C)C(c3ccc(=O)oc3)CC[C@]12O (stereo partly specified) | 0.188 | 0.0803 | 0.0151 | 0.0269 | 0.293 | 0.164 | 0.0733 | 0.0289 | 0.0152 |  |  |  |  |  |  |  |  |  | 
2 | Cc1c2ccncc2c(C)c2c1[nH]c1ccccc12 | 1.83 | 2.73 | 6.38 | 3.13 | 3.88 | 3.76 | 3.11 | 2 | 2.11 | 0.473 | 4.32 |  |  |  |  |  |  |  | 
3 | O=C1c2cccc(NCCNCCO)c2C(=O)c2cccc(NCCNCCO)c21 | 2.09 | 19 | 7.79 | 4.14 | 3.54 | 6.39 | > 32.3 | 5.77 | 2.74 |  | 8.16 |  |  |  |  |  |  |  | 
4 | O=C([CH-]C(=O)c1ccccc1)c1ccccc1.O=C([CH-]C(=O)c1ccccc1)c1ccccc1.[O]=[U+2]=[O] | 4.71 | 11.1 | 24.9 |  | 7.71 | 12.6 | 6.4 | 4.29 | 6.44 | 3.39 | 11.9 | 2.11 | 2.78 | 5.3 | 2.39 | 3.33 | 1.99 | 1.81 | 2.45
5 | CCCCC#CS(=O)(=O)C(F)(F)F | > 100 | > 100 | > 100 | > 100 | > 100 | > 100 | > 100 | > 100 | > 100 |  |  |  |  |  |  |  |  |  | 
6 | O=C(CCCN1CCC2(CC1)C(=NC1CCCCC1)NC(=O)N2c1ccccc1)c1ccc(F)cc1 | 31.2 | > 100 |  | 37.5 | 37 | 62.2 | 49.5 | 39.2 | 33.9 |  | > 100 |  |  |  |  |  |  |  | 
7 | O=C(c1ccccc1)N1C(=S)N=C(Nc2ccccc2)C1=Nc1ccccc1 | > 100 | > 100 |  | > 100 | > 100 | > 100 | > 100 | > 100 | > 100 |  | > 100 |  |  |  |  |  |  |  | 
8 | COC(=O)[C@H](C)NC(=O)[C@H](CSC)N1C(=O)N[C@@H](C(C)C)C1=O | > 100 | > 100 |  | > 100 | > 100 | > 100 | > 100 | > 100 | > 100 |  | > 100 |  |  |  |  |  |  |  | 
9 | COc1ccc(N=C2C(=S)N(c3ccc(OC)cc3)/C(=N/S(=O)(=O)c3ccccc3)N2c2ccccc2)cc1 | 24.8 | 23.5 |  | > 57 | > 64.4 | 28.1 | > 100 | > 49.5 | 25.1 |  | 21.7 |  |  |  |  |  |  |  | 
10 | CC1C(c2ccc3c(c2)OCO3)c2cc3c(cc2OC1N1CCOCC1)OCO3 (stereo unspecified) | 47.4 | > 93.7 |  | 78.6 | > 85 | > 100 | 61.6 | > 93 | 49.5 |  | > 100 |  |  |  |  |  |  |  | 
11 | N#CCCN(CCC#N)c1ccc(/C=C2\SC(=S)NC2=O)cc1Br | > 100 | > 100 |  | 40.4 | > 100 | > 100 | > 100 | > 100 | > 100 |  | > 100 |  |  |  |  |  |  |  | 
12 | Cn1ccnc1Sc1ccc(C=Nc2ccc3nc(SCC(=O)NC4CCCCC4)sc3c2)cc1[N+](=O)[O-] | > 100 | > 100 |  | > 100 | > 100 | > 100 | > 100 | 44.4 | 22.3 |  | > 100 |  |  |  |  |  |  |  | 
13 | OC1(c2ccc(Cl)cc2)c2ccc(CN3CCCC3)cc2C2=NCCN21 (stereo unspecified) | 22.7 | 32.9 |  | 29.2 | 26.7 | 28.7 | 26 | 29.5 | 25.9 |  | 30.3 |  |  |  |  |  |  |  | 
14 | CC12CC1C(c1cccc([N+](=O)[O-])c1)(c1cccc([N+](=O)[O-])c1)N=N2 (stereo unspecified) | 41.5 | 44 |  | > 100 | > 100 | 60.5 | 35.9 | > 100 | 52.9 |  | 29.4 |  |  |  |  |  |  |  | 
15 | COc1cc([C@@H]2c3cc4c(cc3[C@@H](c3c(O)cc(O)c5c3O[C@H](c3ccc(O)c(O)c3)[C@@H](O)C5)[C@H]3COC(=O)[C@H]23)OCO4)cc(OC)c1O | > 100 | > 100 |  | > 100 | > 100 | > 100 | > 100 | > 100 | > 100 |  | > 100 |  |  |  |  |  |  |  | 
16 | COc1ccc(N=NC(=Nc2ccc(F)cc2)c2ccc(N(CCC#N)CCC#N)cc2)cc1 | > 100 | > 100 |  | > 100 | > 100 | 77.7 | > 100 | > 100 | > 100 |  | > 100 |  |  |  |  |  |  |  | 
